The values below come from patent publication US8486979B2, “1,2,4 oxadiazole compounds and methods of use thereof” (AbbVie Inc., priority 2006, dated 2013).

As usually defined, the Kd is a measure of binding affinity in units of concentration. The low end stands for tighter binding, the high end for weaker binding.

Data set [1] concerns nerve injury induced mechanical allodynia. In words: Chung model of neuropathic pain (L5-L6 spinal nerve ligation, tactile allodynia, von Frey). It is filed as in vivo. The settings on record: rat; for mechanical paw withdrawal threshold (PWT): i.p. The method, then: Animals: Male Sprague-Dawley rats (Charles River, Wilmington, Mass.) weighing 120-150 grams at time of surgery were utilized. These animals were group housed in AAALAC approved facilities at Abbott Laboratories in a temperature-regulated environment with lights on between 0700 and 2000 hours. Food and water was available ad libitum except during testing. All animal handling and experimental protocols were approved by an institutional animal care and use committee (IACUC). All experiments were performed during the light cycle.
Chemicals: 5-[(2R)-Azetidin-2-ylmethoxy]-2-chloropyridine (Compound A, 1-100 nmol/kg) and 3-(3-pyridin-3-yl)-1,2,4-oxadiazol-5-yl)benzonitrile (α4β2 PAM Compound 1, 1-35 μmol/kg, i.p.) was used. Compound A and D was prepared in saline and injected in solution in a volume of 2 ml/kg body weight 30 minutes before behavioral evaluation. Compound 1,3-(3-(pyridin-3-yl)-1,2,4-oxadiazol-5-yl)benzonitrile, was prepared in 30% hydroxybetacyclodextrin and injected in solution in a volume of 4 ml/kg body weight immediately before Compound A. For studies with Compound D, the doses tested ranged from 0.3-30 μmol/kg i.p.
Experimental Procedure: To produce neuropathic pain, tight ligation of the L5-L6 spinal nerves was performed. As previously described in detail by Kim and Chung (Kim S H and Chung J M (1992), Pain 50: 355), following sterilization procedures, a 1.5 cm incision was made dorsal to the lumbosacral plexus. The paraspinal muscles (left side) were separated from the spinous processes, the L5 and L6 spinal nerves isolated, and tightly ligated with 3-0 silk thread. Following hemostasis, the wound was sutured and coated with antibiotic ointment. The rats were allowed to recover and then placed in a cage with soft bedding for 7-14 days before behavioral testing for mechanical allodynia.
Tactile allodynia was measured using calibrated (force; g) von Frey filaments (Stoelting, Wood Dale, Ill.). Briefly, rats were placed into individual plexiglass containers and allowed to acclimate for 15-20 minutes before testing. Withdrawal threshold was determined by increasing and decreasing stimulus intensity and estimated using a Dixon non-parametric test (Chaplan et al., 1994; Chaplan S R, Bach F W, Pogrel J W, Chung J M and Yaksh T L (1994) J Neurosci Methods 53:55-63). Only rats with threshold scores ≦4.5 g were considered allodynic and utilized in further testing. A percent of maximal possible effect (% M.P.E.) of the tested compounds was calculated according to the formula: ([post-drug threshold]−[baseline threshold])/([maximum threshold]−[baseline threshold])×100%, where maximum threshold was equal to 15 g.
Statistical analysis: Analysis of the in vivo data was carried out using analysis of variance. Where appropriate, Bonferroni's Multiple Comparison Test was used for post-hoc analysis. The level of significance was set at p less than 0.05. Data are presented as mean ±S.E.M.

In data set [2] the target is T1, human α4β2 nicotinic acetylcholine receptor (Homo sapiens, UniProt P17787+P43681).
T1 construct: expressed in transfected cells
In words: Calcium flux (FLIPR) assay, HEK-293 cells expressing human α4β2 nAChR. The settings on record: for calcium response of partial agonist alone: without PAM; for calcium response of partial agonist co-applied with PAM: co-applied with PAM Compound 1, α4β2 nAChRs. It is filed as cell-based. As to the method:
(§1) Experimental Procedure: Human embryonic kidney (HEK) 293 cells stably expressing human α4β2 or α3β4 combinations are grown to confluency in 162 cm^2 tissue culture flasks in DMEM media supplemented with 10% FBS and 25 μg/ml zeocin and 200 μg/ml hygromycin B. IMR-32 neuroblastoma cells (ATCC) are grown to confluency in 162 cm^2 tissue culture flasks in minimum essential media supplemented with 10% FBS and 1 mM sodium pyruvate, 1% non-essential amino acids and 1% antibiotic-antimycotic. The cells are then dissociated using cell dissociation buffer and 100-150 μl per well of 3.5×10^5 cells/ml cell suspension (˜50,000-100,000 cells/well) was plated into 96-well black plates (poly-D-lysine precoated) with clear bottom and maintained for 24-48 hours in a tissue culture incubator at 37° C. under an atmosphere of 5% CO2: 95% air. Other clonal cell lines or primary cell cultures that express endogenous α4* nicotinic receptors may also be used in this assay. Calcium flux was measured using calcium-3 assay kit (Molecular Devices, Sunnyvale, Calif.) or fluo-4 (Invitrogen). A stock solution of the dye was prepared by dissolving each vial supplied by the vendor in Hank's balanced salt solution buffer (HBSS) or 150 mM NMDG, 20 mM CaCl2 containing 10 mM HEPES, The stock solution was diluted 1:20 using the same buffer before use. The growth media was removed from the cells. The cells were loaded with 100 μl of the dye per well and incubated at room temperature for up to one hour for HEK 293 clonal stable cell lines or 30 minutes-45 minutes at 37° C. for IMR-32 cells Fluorescence measurements were read simultaneously from all the wells by a Fluorometic Imaging Plate Reader (FLIPR) at an excitation wavelength of 480 nm and an emission wavelength of 520 nm. Baseline fluorescence was measured for the first 6 seconds at which 3× concentrations of modulator/test compounds were added to the cell plate at 50 μl and incubated for five minutes. The fluorescence intensity was captured every second for the first 1 minute followed by every 5 seconds for an additional 4 minutes. This procedure was followed by 50 μl of 4× concentration of agonist and readings were taken for a period of 3-5 minutes as described above. Data was normalized to maximal responses and plotted as a function of concentration. The concentration dependence of changes fluorescence responses was fitted by nonlinear regression analysis (GraphPad Prism, San Diego, Calif.) to obtain EC50 values.
The positive allosteric modulator effects on α4β2 nAChRs exemplified by 3-(3-pyridin-3-yl-1,2,4-oxadiazol-5-yl)benzonitrile (Compound 1) and 3,5-di(pyridin-3-yl)-1,2,4-oxadiazole (Compound 2) can be identified by measuring their potentiating effect to fluorescence changes in intracellular calcium using a fluorimetric plate reader. The potentiating effect of an α4β2 modulator on α4β2 receptor can also be illustrated by concentration responses to α4β2 agonists, for example 5-[(2R)-azetidin-2-ylmethoxy]-2-chloropyridine (Compound A) and (3R)-1-pyridin-3-ylpyrrolidin-3-amine (Compound B), in presence of a fixed concentration of PAM. […] In addition to compound A and B, other known nicotinic agonists can be left-shifted in presence of α4β2 PAM such as […]. […] This could lead to preferential effects of the agonist at the desired subtype, viz., α4β2, without effects at other nicotinic receptor subtypes and thus enhancing in vivo selectivity of the agonist.
The activity (allosteric effects—potentiation of fluorescence responses) ranges are defined as follows; “a” denotes as activity range from 200-400%, “b” denotes an activity range from 150-200%, “c” denotes an activity range from 120-150% and “d” denotes an activity range 90-120%. […]
A general note: Calcium flux is commonly read through the fluorescence of an indicator in the cells.

The target in data set [3] is T2, human α3β4 nicotinic acetylcholine receptor (Homo sapiens, UniProt P30926+P32297).
T2 construct: expressed in transfected cells
In words: Calcium flux (FLIPR) assay, HEK-293 cells expressing human α3β4 nAChR. It is filed as cell-based. Conditions: for calcium response of partial agonist co-applied with PAM: co-applied with PAM Compound 1, α3β4 nAChRs. As to the method:
as §1, with “A stock solution of the dye was prepared by dissolving each vial supplied by the vendor in Hank's balanced salt solution buffer (HBSS) or 150 mM NMDG, 20 mM CaCl2 containing 10 mM HEPES, The stock solution was diluted 1:20 using the same buffer before use. The growth media was removed from the cells.” left out, “Data was normalized to maximal responses and plotted as a function of concentration.” left out, “values. […]” for “values.”

Another data set concerns emesis. As to the kind of experiment: Emesis in ferrets. The format is in vivo. Conditions: ferret. As to the method: Fasted male ferrets (Marshall BioResources, North Rose, N.Y.) weighing between 1.0 and 1.7 kg are used to determine the emetic effects. α4β2 PAM (Compound 1) was administered first and thirty minutes later, Compound A was administered at various doses. […] The percentage of animals that experienced emesis at a given dose was recorded.

Data set [4] addresses T3, α4β2 nAChR modulator site (Homo sapiens, UniProt P17787+P43681).
T3 construct: membrane enriched fractions from human cortex (ABS Inc., Wilmington, Del.); tissue ABS Inc., Wilmington, Del; host or cells: human cortex (frontal cortex) membrane enriched fractions
As to the kind of experiment: [3H]-POB binding, membrane enriched fractions from human cortex. Conditions: saturation binding, human frontal cortex membranes, 4° C. The method, then: [^3H]-POB ([^3H]-3-(5-(pyridin-3-yl)-1,2,4-oxadiazol-3-yl)benzonitrile) binding to a α4β2 nAChR modulator site was determined using membrane enriched fractions from human cortex (ABS Inc., Wilmington, Del.). Pellets were thawed at 4° C., washed and resuspended with a Polytron at a setting of 7 in 30 volumes of BSS-Tris buffer (120 mM NaCl, 5 mM KCl, 2 mM CaCl2, 2 mM MgCl2, and 50 mM Tris-Cl, pH 7.4, 4° C.). For saturation binding isotherms, eight concentrations of [^3H]-POB (10-250 nM) in quadruplicate and homogenate containing 100-200 μg of protein were incubated in a final volume of 500 μL for 75 minutes at 4° C. Non-specific binding was determined in the presence of 30 μM unlabeled 3-(5-(pyridin-3-yl)-1,2,4-oxadiazol-3-yl)benzonitrile. Under these conditions, saturable binding of [^3H]-POB binding was measured in membrane enriched fractions from human frontal cortex (FIG. 10). […]
For use in concentration-inhibition assays, seven log-dilution concentrations of test compounds containing 100-200 μg of protein, and 50 nM [^3H]-POB (16.4 Ci/mmol) were incubated in a final volume of 500 μL for 75 minutes at 4° C. in duplicate. Non-specific binding was determined in the presence of 30 μM 3-(5-(pyridin-3-yl)-1,2,4-oxadiazol-3-yl)benzonitrile. […] IC50 values were determined by nonlinear regression in Microsoft® Excel or Assay Explorer. […]

Where [5] appears, read: Compound 1 3.5 μmol/kg with various doses of Compound A.

T1 sequence (P43681 29-627 limits assumed): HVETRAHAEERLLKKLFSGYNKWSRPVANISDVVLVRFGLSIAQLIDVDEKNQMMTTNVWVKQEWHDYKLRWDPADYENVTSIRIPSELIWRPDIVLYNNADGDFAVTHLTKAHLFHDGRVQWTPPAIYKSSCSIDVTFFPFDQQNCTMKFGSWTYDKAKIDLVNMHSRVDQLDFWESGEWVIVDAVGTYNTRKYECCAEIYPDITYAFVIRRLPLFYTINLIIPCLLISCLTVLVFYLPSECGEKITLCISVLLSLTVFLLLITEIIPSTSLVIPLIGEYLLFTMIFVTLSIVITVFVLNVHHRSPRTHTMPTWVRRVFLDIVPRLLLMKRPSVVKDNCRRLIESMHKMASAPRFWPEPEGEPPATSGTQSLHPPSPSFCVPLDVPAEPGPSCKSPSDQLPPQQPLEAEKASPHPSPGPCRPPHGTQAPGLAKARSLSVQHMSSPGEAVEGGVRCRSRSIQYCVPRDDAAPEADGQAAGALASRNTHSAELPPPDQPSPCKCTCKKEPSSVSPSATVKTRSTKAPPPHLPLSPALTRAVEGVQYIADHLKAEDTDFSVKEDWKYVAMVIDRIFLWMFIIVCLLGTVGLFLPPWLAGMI
T1 sequence (P17787 26-502): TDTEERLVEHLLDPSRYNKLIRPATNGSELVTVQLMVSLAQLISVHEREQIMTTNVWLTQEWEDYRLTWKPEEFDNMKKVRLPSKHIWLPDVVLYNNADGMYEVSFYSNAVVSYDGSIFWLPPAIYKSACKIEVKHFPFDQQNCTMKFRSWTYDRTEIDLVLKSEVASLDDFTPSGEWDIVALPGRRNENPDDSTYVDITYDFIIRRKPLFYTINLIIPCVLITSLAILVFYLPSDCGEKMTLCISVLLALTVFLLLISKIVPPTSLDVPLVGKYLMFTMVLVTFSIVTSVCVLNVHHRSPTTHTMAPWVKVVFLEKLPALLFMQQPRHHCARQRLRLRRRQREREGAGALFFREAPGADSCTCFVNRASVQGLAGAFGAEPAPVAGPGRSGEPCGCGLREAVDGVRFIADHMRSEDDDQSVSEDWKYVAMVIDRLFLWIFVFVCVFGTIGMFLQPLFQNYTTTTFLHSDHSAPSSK
T2 sequence (P32297 32-505): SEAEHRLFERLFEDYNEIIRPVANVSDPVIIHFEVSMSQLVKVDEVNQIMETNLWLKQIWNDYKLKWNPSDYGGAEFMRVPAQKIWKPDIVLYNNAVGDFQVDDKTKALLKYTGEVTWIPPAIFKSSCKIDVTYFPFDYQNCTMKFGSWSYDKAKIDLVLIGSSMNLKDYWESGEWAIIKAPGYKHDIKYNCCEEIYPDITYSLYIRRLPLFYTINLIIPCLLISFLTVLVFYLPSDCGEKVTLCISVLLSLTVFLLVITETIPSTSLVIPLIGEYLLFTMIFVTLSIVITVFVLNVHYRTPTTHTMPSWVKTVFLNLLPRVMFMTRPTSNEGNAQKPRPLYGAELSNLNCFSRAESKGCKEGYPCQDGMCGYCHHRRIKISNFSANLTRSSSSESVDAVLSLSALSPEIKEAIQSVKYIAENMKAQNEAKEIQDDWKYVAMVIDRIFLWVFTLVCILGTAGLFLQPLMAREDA
T2 sequence (P30926 22-498): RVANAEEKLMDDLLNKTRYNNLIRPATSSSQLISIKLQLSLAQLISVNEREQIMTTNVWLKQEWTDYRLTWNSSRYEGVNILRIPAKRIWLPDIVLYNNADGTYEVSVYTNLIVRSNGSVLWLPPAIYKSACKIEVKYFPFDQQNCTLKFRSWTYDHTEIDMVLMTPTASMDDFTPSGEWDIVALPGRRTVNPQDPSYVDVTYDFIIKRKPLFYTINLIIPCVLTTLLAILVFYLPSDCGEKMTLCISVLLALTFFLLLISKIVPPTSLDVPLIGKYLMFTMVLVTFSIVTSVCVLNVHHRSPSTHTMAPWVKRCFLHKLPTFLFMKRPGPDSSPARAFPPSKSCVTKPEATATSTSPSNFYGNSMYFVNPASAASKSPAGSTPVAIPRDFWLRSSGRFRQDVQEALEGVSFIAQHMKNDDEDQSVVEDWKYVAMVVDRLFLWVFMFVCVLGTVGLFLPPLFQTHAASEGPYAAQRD
T3 sequence (P43681 29-627 limits assumed): as the sequence (P43681 29-627 limits assumed) above
T3 sequence (P17787 26-502): as the sequence (P17787 26-502) above

For the compound `Clc1ccc(OC[C@H]2CCN2)cn1` [Compound A, 5-[(2R)-azetidin-2-ylmethoxy]-2-chloropyridine], the “efficacy in neuropathic pain” value was “ineffective” in data set [1] (1 nmol/kg, alone) and “dose-dependent increase in efficacy” in data set [1] (Compound A 1 nmol/kg combined with varying doses of PAM Compound 1). Further, the “mechanical paw withdrawal threshold (PWT)” value in data set [1] (0.03 μmol/kg, alone) worked out at 5.6 ± 0.3 g.

`Cc1ncccc1OC[C@@H]1CCCN1` [Compound C, 2-methyl-3-(2-(S)-pyrrolidinylmethoxy)pyridine, reference compound]: in data set [2], the “calcium response of partial agonist alone” value is on record as “does not evoke a calcium response” and the “calcium response of partial agonist co-applied with PAM” value (“calcium response … with PAM” below) is listed as “evoked robust responses”. Also, the “calcium response … with PAM” value in data set [3] is “not at α3β4 nAChRs”.

Take `c1ccc2ncc(N3C[C@@H]4CN[C@@H]4C3)cc2c1` [Compound D, (1S,5S)-3-(3,6-diaza-bicyclo[3.2.0]hept-3-yl)-quinoline]: in data set [2], the “calcium response of partial agonist alone” value is recorded as “does not evoke a response” and the “calcium response … with PAM” value is recorded as “evoked robust responses”. For the same compound, the “efficacy in neuropathic pain, administered alone” value in data set [1] (alone) is on record as “ineffective in reversing neuropathic pain”. Further, the “efficacy in neuropathic pain, co-dosed with α4β2 PAM” value in data set [1] (co-dosed with Compound 1) is on record as “significant relief of neuropathic pain”. Also, the “calcium response … with PAM” value in data set [3] is listed as “not at α3β4 nAChRs”.

On to `N#Cc1cccc(-c2nc(-c3cccnc3)no2)c1` [Example 1, 3-(3-(pyridin-3-yl)-1,2,4-oxadiazol-5-yl)benzonitrile], for which, in the data set with emesis (setting [5]), the “shift of emesis dose response curve of Compound A” value is recorded as “does not shift the dose response curve of Compound A”. Besides, in the data set with emesis (alone), the emesis entry is on record as “does not cause emesis”. Besides, in data set [2] (α4β2 positive allosteric modulation, calcium fluorescence (FLIPR)), the “Activity (allosteric effects—potentiation of fluorescence responses)” value is listed as “a (“a” denotes as activity range from 200-400%)”. Further, in data set [1] (10 mg/kg, alone), the “mechanical paw withdrawal threshold (PWT)” value turned out to be 3.3 ± 0.4 g. In addition, the “shift of neuropathic pain dose response curve of Compound A” value in data set [1] (setting [5]) was “left-shifting the dose response curve of Compound A”. In data set [1] (alone), the “efficacy in neuropathic pain, administered alone” value is recorded as “ineffective”. The “effect of PAM on concentration responses to the agonists” value in data set [3] (cells expressing α3β4, agonists Compound A and Compound B) was “unable to affect the concentration responses to the agonists”.

For `[3H]c1cncc(-c2nc(-c3cccc(C#N)c3)no2)c1` [Example 135, [^3H]-3-(5-(pyridin-3-yl)-1,2,4-oxadiazol-3-yl)benzonitrile], in data set [4], the Bmax is 2900±500 fmol/mg protein and the Kd was determined as 60 ± 16 nM.
